# Values of other authors as cited in patent US10441593B2, “Treatment of pain associated with dislocation of endometrium” (PREGLEM S.A., priority 2010, dated 2019).
# Experiments:
# endometriosis = details: cited from earlier work
# liver enzyme = details: clinical development program; 12.5 mg, 25 mg and 50 mg; cited from earlier work
compound,measurement,setting,value
COCC(=O)[C@@]1(OC(C)=O)CC[C@H]2[C@@H]3CCC4=CC(=O)CCC4=C3[C@@H](c3ccc(N(C)C)cc3)C[C@@]21C [Proellex],days of pain compared with baseline,"endometriosis; 50 mg group, end of the first months of therapy",statistically significant reduction in days of pain
same,dose response in treatment of endometriosis,endometriosis; 6 month study,clearly support a dose response
same,"liver enzyme (sign of liver toxicity, DILI)",liver enzyme,dose related increase in liver enzyme
